Molecules are shown by their SMILES. Active and inactive are the calls of the source. Some results are limits rather than exact numbers.

Assay [1] addresses T1, Acyl-CoA dehydrogenase family member 11 (Homo sapiens, UniProt Q709F0).
T1 sequence (Q709F0 whole entry): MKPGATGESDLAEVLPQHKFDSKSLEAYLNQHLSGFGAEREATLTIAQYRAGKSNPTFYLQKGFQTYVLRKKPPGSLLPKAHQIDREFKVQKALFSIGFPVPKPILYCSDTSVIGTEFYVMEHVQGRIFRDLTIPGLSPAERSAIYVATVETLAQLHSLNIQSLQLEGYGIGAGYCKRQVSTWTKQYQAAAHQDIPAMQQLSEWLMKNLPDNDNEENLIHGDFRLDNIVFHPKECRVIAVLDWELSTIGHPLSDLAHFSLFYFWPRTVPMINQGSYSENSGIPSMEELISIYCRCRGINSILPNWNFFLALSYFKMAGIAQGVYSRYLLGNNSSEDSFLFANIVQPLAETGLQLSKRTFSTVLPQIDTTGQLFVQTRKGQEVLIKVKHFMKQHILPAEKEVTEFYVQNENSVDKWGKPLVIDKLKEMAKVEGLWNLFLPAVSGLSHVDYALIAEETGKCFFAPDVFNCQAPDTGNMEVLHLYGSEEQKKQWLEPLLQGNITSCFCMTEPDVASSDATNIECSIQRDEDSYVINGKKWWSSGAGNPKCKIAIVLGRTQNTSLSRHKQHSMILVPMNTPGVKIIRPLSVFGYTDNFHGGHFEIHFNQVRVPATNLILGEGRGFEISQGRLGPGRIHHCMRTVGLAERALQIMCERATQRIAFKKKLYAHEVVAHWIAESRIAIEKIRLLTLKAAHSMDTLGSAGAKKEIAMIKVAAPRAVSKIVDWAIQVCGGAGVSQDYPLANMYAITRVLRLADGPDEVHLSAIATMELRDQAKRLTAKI

The target in assay [2] is Mitogen-activated protein kinase 10 (Homo sapiens, UniProt P53779).
Chain of Mitogen-activated protein kinase 10 (P53779 whole entry): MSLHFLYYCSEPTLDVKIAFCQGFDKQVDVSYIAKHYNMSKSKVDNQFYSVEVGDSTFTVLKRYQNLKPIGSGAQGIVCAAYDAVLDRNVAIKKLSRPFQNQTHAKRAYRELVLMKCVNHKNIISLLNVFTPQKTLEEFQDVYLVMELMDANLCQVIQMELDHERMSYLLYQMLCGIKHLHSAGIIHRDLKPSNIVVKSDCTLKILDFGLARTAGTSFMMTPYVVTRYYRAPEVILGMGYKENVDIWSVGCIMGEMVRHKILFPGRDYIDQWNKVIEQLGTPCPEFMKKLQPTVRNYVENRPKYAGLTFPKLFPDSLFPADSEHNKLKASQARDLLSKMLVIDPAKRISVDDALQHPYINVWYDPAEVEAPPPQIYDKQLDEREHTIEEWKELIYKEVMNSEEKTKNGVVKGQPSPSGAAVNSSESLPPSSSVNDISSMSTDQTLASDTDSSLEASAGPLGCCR
Assay [3] deals with Macrophage-stimulating protein receptor (Homo sapiens, UniProt Q04912).
Chain of Macrophage-stimulating protein receptor (Q04912 25-304 limits assumed): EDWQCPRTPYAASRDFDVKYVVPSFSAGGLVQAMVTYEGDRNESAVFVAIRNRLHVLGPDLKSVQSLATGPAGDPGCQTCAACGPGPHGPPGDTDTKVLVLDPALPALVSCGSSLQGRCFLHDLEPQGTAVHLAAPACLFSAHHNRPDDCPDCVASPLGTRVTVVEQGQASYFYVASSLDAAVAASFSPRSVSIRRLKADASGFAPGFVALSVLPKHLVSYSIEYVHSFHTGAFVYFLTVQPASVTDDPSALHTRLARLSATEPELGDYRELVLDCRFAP
Chain of Macrophage-stimulating protein receptor (Q04912 310-1400 limits assumed): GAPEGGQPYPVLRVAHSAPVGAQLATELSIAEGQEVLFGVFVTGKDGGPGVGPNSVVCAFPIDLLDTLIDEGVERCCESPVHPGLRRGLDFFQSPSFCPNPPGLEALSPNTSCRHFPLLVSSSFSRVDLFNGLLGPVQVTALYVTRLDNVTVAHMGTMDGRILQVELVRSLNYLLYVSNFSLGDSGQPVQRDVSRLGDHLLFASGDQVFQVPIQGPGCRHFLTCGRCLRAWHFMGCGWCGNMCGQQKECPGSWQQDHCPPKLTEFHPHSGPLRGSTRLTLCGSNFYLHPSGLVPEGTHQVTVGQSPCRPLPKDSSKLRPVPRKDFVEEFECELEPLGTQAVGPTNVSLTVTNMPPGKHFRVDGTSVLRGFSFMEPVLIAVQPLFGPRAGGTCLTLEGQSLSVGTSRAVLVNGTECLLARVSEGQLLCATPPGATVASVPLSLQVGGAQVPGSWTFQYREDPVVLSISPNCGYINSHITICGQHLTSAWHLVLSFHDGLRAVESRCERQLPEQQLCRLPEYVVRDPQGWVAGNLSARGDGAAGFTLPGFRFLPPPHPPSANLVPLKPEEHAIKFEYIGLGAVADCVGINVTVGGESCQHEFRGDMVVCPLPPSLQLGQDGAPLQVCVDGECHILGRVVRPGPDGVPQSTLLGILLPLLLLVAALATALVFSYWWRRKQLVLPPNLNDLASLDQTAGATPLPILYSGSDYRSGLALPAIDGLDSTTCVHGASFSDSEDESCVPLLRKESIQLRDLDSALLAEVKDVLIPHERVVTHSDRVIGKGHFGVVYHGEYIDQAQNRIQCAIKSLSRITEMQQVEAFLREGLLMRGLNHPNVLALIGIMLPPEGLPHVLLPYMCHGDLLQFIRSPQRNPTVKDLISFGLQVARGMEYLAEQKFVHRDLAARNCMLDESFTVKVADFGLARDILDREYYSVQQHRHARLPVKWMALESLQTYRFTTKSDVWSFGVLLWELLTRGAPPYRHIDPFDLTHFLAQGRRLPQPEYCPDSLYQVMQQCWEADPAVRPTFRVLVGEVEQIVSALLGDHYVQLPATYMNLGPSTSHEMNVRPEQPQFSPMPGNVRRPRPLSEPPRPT
The target of assay [4] is T2, RNA cytidine acetyltransferase (Homo sapiens, UniProt Q9H0A0).
T2 sequence (Q9H0A0 whole entry): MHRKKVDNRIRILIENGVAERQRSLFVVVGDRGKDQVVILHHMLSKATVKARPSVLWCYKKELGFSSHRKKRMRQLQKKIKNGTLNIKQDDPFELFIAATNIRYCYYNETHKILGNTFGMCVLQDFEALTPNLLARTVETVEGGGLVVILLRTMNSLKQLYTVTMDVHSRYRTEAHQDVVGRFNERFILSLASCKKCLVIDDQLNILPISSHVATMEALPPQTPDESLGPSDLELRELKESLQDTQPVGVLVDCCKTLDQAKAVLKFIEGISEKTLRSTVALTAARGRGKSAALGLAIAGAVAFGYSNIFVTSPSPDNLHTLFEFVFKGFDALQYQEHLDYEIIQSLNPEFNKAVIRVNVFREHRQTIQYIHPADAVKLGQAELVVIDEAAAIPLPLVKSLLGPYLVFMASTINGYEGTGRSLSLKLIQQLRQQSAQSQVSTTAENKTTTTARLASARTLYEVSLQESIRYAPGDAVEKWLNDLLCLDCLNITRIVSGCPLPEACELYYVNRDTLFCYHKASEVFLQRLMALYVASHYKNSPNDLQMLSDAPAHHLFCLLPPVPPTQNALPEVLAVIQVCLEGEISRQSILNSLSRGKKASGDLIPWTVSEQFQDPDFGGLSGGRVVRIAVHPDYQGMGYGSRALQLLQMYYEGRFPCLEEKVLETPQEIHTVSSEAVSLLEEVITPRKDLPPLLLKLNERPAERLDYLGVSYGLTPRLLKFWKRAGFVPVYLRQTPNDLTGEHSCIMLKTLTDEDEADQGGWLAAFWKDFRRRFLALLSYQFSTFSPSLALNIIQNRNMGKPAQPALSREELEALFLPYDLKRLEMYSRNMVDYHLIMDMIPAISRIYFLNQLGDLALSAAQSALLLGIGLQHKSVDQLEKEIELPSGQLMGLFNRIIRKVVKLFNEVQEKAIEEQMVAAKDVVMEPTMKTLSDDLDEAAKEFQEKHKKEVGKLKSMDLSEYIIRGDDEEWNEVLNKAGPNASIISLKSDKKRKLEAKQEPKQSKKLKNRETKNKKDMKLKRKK

Assay [5] concerns the target T3, Serine/threonine-protein kinase Nek3 (Homo sapiens, UniProt P51956).
T3 sequence (P51956 whole entry): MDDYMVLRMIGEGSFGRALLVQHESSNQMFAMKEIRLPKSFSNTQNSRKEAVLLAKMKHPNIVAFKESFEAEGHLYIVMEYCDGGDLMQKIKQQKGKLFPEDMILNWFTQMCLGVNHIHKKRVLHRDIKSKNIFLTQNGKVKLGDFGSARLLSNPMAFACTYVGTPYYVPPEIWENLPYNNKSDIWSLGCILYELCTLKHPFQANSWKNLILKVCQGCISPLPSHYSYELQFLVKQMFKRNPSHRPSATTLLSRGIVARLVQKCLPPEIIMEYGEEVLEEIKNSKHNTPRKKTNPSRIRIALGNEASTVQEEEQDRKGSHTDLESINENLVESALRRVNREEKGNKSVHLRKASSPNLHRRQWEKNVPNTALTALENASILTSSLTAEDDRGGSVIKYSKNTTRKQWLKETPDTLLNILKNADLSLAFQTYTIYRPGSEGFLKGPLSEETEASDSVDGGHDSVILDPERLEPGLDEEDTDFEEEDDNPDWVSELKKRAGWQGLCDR

Assay [6] concerns the target T4, Phosphatidylinositol 5-phosphate 4-kinase type-2 alpha (Homo sapiens, UniProt P48426).
T4 sequence (P48426 whole entry): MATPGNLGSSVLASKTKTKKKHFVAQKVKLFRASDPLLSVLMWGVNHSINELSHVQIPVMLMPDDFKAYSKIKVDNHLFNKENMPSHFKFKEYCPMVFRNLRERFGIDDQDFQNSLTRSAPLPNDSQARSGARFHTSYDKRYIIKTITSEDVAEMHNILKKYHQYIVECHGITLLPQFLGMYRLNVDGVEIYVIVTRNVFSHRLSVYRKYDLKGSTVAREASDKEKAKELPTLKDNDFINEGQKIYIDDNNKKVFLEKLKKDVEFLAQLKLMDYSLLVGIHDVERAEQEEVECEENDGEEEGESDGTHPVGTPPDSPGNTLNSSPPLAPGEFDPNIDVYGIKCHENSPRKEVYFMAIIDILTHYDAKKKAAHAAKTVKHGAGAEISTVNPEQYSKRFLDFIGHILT
Note: in the data inactive means no Kd found up to 30 µM.

Usually Kd stands for the concentration at which binding is half-saturated. For `CNC(=O)c1cccc2cc(Oc3ccnc4cc(OCC5(N)CC5)c(OC)cc34)ccc12` [LUCITANIB], the Kd in assay [1], in assay [2], in assay [3], in assay [4], in assay [5] and in assay [6] was > 30 µM (inactive) in each case.
Regarding `NC1(c2ccc(-c3nc4ccn5c(=O)[nH]nc5c4cc3-c3ccccc3)cc2)CCC1` [MK-2206], the Kd in assay [1], in assay [2], in assay [3], in assay [4], in assay [5] and in assay [6] was > 30 µM (inactive) each time.
With `Cn1cc(-c2cnc3ccc4ccc(CS(=O)(=O)NCc5ccccn5)cc4c(=O)c3c2)cn1` [MK-8033], the Kd was > 30 µM (inactive) in assay [1]; > 30 µM (inactive) in assay [2]; 0.956 µM (active) in assay [3]; > 30 µM (inactive) in assay [4]; > 30 µM (inactive) in assay [5]; > 30 µM (inactive) in assay [6].
Consider `COc1ncc(-c2ccc3nccc(-c4ccnnc4)c3c2)cc1NS(=O)(=O)c1ccc(F)cc1F` [OMIPALISIB], for which the Kd in assay [1], in assay [2], in assay [3], in assay [4], in assay [5] and in assay [6] was > 30 µM (inactive) in each case.
Consider `CCOc1cc2ncc(C#N)c(Nc3ccc(F)c(Cl)c3)c2cc1NC(=O)/C=C/CN(C)C` [PELITINIB], for which the Kd in assay [1], in assay [2], in assay [3], in assay [4], in assay [5] and in assay [6] was > 30 µM (inactive) throughout.
On to `Cc1nc(Nc2n[nH]c3c2CN(C(=O)N[C@H](CN(C)C)c2ccccc2)C3(C)C)c2sccc2n1` [PF-03758309], for which the Kd in assay [1], in assay [2], in assay [3], in assay [4], in assay [5] and in assay [6] was > 30 µM (inactive) throughout.
`CNC(=O)c1cc(Oc2ccc(NC(=O)Nc3cc(C(C)(C)C)nn3-c3ccc4ncccc4c3)c(F)c2)ccn1` [REBASTINIB]: the Kd is > 30 µM (inactive) in assay [1]; 0.072 µM in assay [2]; 0.732 µM (active) in assay [3]; > 30 µM (inactive) in assay [4]; > 30 µM (inactive) in assay [5]; > 30 µM (inactive) in assay [6].
Take `CO[C@H]1C[C@@H]2CC[C@@H](C)[C@@](O)(O2)C(=O)C(=O)N2CCCC[C@H]2C(=O)O[C@H]([C@H](C)C[C@@H]2CC[C@@H](OP(C)(C)=O)[C@H](OC)C2)CC(=O)[C@H](C)/C=C(\C)[C@@H](O)[C@@H](OC)C(=O)[C@H](C)C[C@H](C)/C=C/C=C/C=C/1C` [RIDAFOROLIMUS]: the Kd in assay [1], in assay [2], in assay [3], in assay [4], in assay [5] and in assay [6] was > 30 µM (inactive) in each case.
Turning to `N#CC1(c2ccc(NC(=O)c3cccnc3NCc3ccncc3)cc2)CCCC1` [RIVOCERANIB], the Kd in assay [1], in assay [2], in assay [3], in assay [4], in assay [5] and in assay [6] was > 30 µM (inactive) throughout.
Turning to `O=c1[nH]ccc2cc(OC3CCNCC3)ccc12` [SAR-407899 FREE BASE], the Kd in assay [1], in assay [2], in assay [3], in assay [4], in assay [5] and in assay [6] was > 30 µM (inactive) in each case.
With `CN1CCN(CCOc2cc(OC3CCOCC3)c3c(Nc4c(Cl)ccc5c4OCO5)ncnc3c2)CC1` [SARACATINIB], the Kd in assay [1], in assay [2], in assay [3], in assay [4], in assay [5] and in assay [6] was > 30 µM (inactive) throughout.
For `Cn1cc(-c2cnn3c(N)c(Br)c([C@@H]4CCCNC4)nc23)cn1` [SCH-900776], the Kd in assay [1], in assay [2], in assay [3], in assay [4], in assay [5] and in assay [6] was > 30 µM (inactive) each time.
In the case of `CO[C@H]1C[C@@H]2CC[C@@H](C)[C@@](O)(O2)C(=O)C(=O)N2CCCC[C@H]2C(=O)O[C@H]([C@H](C)C[C@@H]2CC[C@@H](O)[C@H](OC)C2)CC(=O)[C@H](C)/C=C(\C)[C@@H](O)[C@@H](OC)C(=O)[C@H](C)C[C@H](C)/C=C/C=C/C=C/1C` [SIROLIMUS], the Kd in assay [1], in assay [2], in assay [3], in assay [4], in assay [5] and in assay [6] was > 30 µM (inactive) in each case.
For `CCS(=O)(=O)c1cccc(-c2cc(C(=O)NC3CCN(C)CC3)c(C)c3[nH]c4ncc(C)cc4c23)c1` [TAK-901], the Kd in assay [1], in assay [2], in assay [3], in assay [4], in assay [5] and in assay [6] was > 30 µM (inactive) in each case.
